Series [1] relates to typical syndrome produced by intraperitoneal injection of 0.6% aqueous acetic acid. Nature of the series: writhing test (acetic acid). The format is in vivo, mice. The conditions noted are these: for ED50: Mus musculus. How it is done:
The test was based on the specific antagonism of the test compound to
typical syndrome produced by intraperitoneal injection of 0.6% aqueous
acetic acid. The syndrome was characterized by intermittent contractions
of the abdomen, twisting and turning of the trunk and extension of the
hind legs. A group of 5 mice was used for each dose level. The test
compound was administered 60 minutes before the injection of acetic acid
subcutaneously (sc) or orally (po).
pain response was recorded. The ED50 value was calculated according
to the LitchfieldWilcoxen's method.
Background: In writhing tests, fewer writhes than in controls are read as antinociception.

The nature of series [2]: abstinence syndrome test (body weight after drug withdrawal). The following applies: for Abstinence syndrome: subcutaneous, twice a day, male rats, body weight decrease the day after withdrawal. The protocol:
Groups of male rats of Wister strain (body weight, 150 g), each group
consisting of 20 male rats, were subcutaneously given the test compound
twice a day for 4 consecutive weeks. On the next day after drug
withdrawal, body weight was measured. The symbols have the following
meanings: +++, severe decrease (about 5% decrease); ++, moderate decrease
+, mild decrease; -, no decrease. A marked decrease is taken as an […]

For series [3] the following is noted: cited from earlier work.
For series [4] the following is noted: cited from earlier work. The source holds these as a separate data set.
Where [5] appears, read: sc, subcutaneous, 60 minutes before acetic acid, mice, Litchfield-Wilcoxen, read-out: ED50 SC.
[6] abbreviates: oral, 60 minutes before acetic acid, mice, Litchfield-Wilcoxen, read-out: ED50 PO.

Structures can show the parent of a compound that is named as a salt. Where two headings read alike, the source gives them in different places.

Data on 5 compounds can be found in patent US4241070A, “Analgesic benzomorphan derivatives” (priority 1975, dated 1980).

Consider `CC(C)=CCN1CCC2(C)c3cc(O)ccc3CC1C2C` (stereo not drawn) [2'-hydroxy-5,9-dimethyl-2-(3"-methyl-2"-butenyl)-6,7-benzomorphan], for which the median effective dose (ED50) is 17.6 mg/kg in series [1] (setting [5]) and 98 mg/kg in series [1] (setting [6]).

Take `CC1C2Cc3ccc(O)cc3C1(C)CCN2C` (stereo not drawn) [2'-Hydroxy-2,5,9-trimethyl-6,7-benzomorphan]: the Abstinence syndrome result in series [2] (20 mg/kg/day for 4 weeks) is on record as “++”. Also, the analgesia entry in series [3] (U.S. Pat. No. 3,138,603) was “potent analgesia”. Besides, in series [4] (U.S. Pat. No. 3,138,603), the addiction liability result was “has an addiction liability”.

Regarding `CC1C2Cc3ccc(O)cc3C1(C)CCN2CCCC(=O)c1ccc(F)cc1` (stereo not drawn) [2-[γ-(p-fluorobenzoyl)-propyl]-2'-hydroxy-5,9-dimethyl-6,7-benzomorphan], the “effectiveness by route of administration” value in series [3] (2-[γ-(p-fluorobenzoyl)-propyl]-2'-hydroxy-5,9-dimethyl-6,7-benzomorphan) is on record as “effective when administered parenterally rather than orally”. Moreover, the analgesic activity result in series [3] (U.S. Pat. No. 3,833,595) is listed as “significant analgesic activity”. In addition, the drug addiction entry in series [4] (U.S. Pat. No. 3,833,595) is listed as “without causing drug addiction”.

For `Cc1ccc2c(c1)C1(C)CCN(CCCC(=O)c3ccc(F)cc3)C(C2)C1C` (stereo not drawn) [Example 1, 2-[γ-(p-Fluorobenzoyl)-propyl]-2',5,9-trimethyl-6,7-benzomorphan], the ED50 turned out to be 7.9 mg/kg in series [1] (setting [5]) and 9.6 mg/kg in series [1] (setting [6]). The “analgesic effectiveness compared with pentazocine” value in series [1] (oral and subcutaneous administration) is given as “more effective than pentazocine”. In addition, the Abstinence syndrome entry in series [2] (40 mg/kg/day for 4 weeks) is “-”. Also, the addictive property result in series [2] (as shown in Table 2) was “did not exhibit any addictive property”.

As to `CN1CC[C@]23c4c5ccc(O)c4O[C@H]2[C@@H](O)C=C[C@H]3[C@H]1C5` [Morphine . hydrochloride, Morphine], the ED50 is 7 mg/kg in series [1] (po, read-out: ED50 PO) and 1.6 mg/kg in series [1] (sc, read-out: ED50 SC).

The ED50 is the dose at which the effect has come halfway, by size or by number of responders.
